Test results reported in US20210212996A1, “METHODS OF TREATING NEURODEGENERATIVE DISEASES USING INDANE ACETIC ACID DERIVATIVES WHICH PENETRATE THE BLOOD BRAIN BARRIER” (DARA BioSciences, Inc., priority 2009, published 2021).
Like-named read-outs stand apart in the source and are kept apart here.

Experiments:
human PPARδ = biological target: T1, human PPARδ (Homo sapiens, UniProt Q03181); test: Human PPAR activation in transient transfection study, transfected CV-1 cells (delta subtype); format: cell-based
T1 construct: expressed in transfected cells; host or cells: CV-1 cells (transient transfection)
T1 sequence (Q03181 1-441): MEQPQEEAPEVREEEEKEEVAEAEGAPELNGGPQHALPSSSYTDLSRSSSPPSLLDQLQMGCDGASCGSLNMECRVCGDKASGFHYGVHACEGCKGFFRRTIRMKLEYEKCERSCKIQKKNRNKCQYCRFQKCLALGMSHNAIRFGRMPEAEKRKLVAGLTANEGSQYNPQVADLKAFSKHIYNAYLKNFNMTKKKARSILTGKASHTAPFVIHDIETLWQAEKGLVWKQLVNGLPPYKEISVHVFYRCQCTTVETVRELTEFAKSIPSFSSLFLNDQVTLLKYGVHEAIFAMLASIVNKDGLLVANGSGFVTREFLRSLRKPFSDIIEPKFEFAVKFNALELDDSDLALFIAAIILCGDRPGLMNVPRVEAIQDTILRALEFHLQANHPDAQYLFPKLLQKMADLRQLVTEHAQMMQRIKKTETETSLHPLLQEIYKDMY

human PPARγ = biological target: T2, human PPARγ (Homo sapiens, UniProt P37231); test: Human PPAR activation in transient transfection study, transfected CV-1 cells (gamma subtype); format: cell-based
T2 construct: expressed in transfected cells; host or cells: CV-1 cells (transient transfection)
T2 sequence (P37231 1-505): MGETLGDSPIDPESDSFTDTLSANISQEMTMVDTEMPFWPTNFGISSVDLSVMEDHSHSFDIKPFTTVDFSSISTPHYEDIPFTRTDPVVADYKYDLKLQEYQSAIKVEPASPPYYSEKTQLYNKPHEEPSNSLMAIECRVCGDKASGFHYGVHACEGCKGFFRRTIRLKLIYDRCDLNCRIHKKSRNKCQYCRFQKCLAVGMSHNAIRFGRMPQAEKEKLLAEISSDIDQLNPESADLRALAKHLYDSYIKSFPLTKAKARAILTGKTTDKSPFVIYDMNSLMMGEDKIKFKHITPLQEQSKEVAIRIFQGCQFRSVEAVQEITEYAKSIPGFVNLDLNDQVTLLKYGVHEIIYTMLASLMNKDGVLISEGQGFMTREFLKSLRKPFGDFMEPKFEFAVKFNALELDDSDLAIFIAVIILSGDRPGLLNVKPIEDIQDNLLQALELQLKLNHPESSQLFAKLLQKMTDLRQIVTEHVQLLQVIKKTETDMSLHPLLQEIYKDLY
Description: (§1) The table summarize the results of studies performed in transfected CV-1 cells with three different lots of Compound of Example 11. […].

[1] = system: Relative Cerebral Metabolic Rate for glucose; test: FDG-PET clinical study, two week treatment; format: in vivo, human
Description: The majority were non-Hispanic and of white origin.

human Caco-2 = test: Caco-2 permeability with and without P-gp inhibitor verapamil; settings: Caco-2 with/without verapamil
[2] = as above; settings: human, Caco-2
human PPARα = biological target: T3, human PPARα (Homo sapiens, UniProt Q07869); test: Human PPAR activation in transient transfection study, transfected CV-1 cells (alpha subtype); format: cell-based
T3 construct: expressed in transfected cells; host or cells: CV-1 cells (transient transfection)
T3 sequence (Q07869 1-468): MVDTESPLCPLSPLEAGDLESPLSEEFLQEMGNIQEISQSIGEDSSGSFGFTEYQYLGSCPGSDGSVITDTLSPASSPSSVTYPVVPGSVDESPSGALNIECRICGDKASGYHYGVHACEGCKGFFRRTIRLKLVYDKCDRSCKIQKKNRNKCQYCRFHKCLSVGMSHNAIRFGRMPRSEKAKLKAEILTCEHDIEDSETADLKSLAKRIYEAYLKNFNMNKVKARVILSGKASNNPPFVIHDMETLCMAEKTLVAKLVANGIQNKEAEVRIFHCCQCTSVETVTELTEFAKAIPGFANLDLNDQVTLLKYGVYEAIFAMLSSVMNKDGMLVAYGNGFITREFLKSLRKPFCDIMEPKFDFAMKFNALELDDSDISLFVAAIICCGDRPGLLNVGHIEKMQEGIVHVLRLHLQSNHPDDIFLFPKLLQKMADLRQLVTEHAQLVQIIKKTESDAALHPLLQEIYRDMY
Description: as §1

[3] = Rat brain penetrance pharmacokinetics, brain to plasma ratio after oral dosing; format: in vivo, male Sprague-Dawley rats; settings: for concentration at 7 h: time point 7.0, individual rats
Description: Blood brain penetration studies can be carried out as described in recent publications and as is known by those skilled in the art. (See: Chang, K. L., et al. Influence of drug transporters and stereoselectivity on the brain penetration of pioglitazone as a potential medicine against Alzheimer's disease. Science Reports 2014, 5, 9000). In brief, A good measure of whether a small molecule penetrates the BBB and is not rapidly transported out, is the brain to plasma ratio of the drug. This is measured in pre-clinical animal models by determining plasma concentration vs time curves as in a standard pharmacokinetic study, and in addition harvesting brains and determining whole brain concentrations over time. The brain to plasma concentration ratio can them be determined at any time point, such as the […], or for the entire time curve (AUC, area under the curve). Clinically, FDG-PET can be used as a measure of the pharmacological effect of T3D-959, and an indirect measure of brain levels of drug.
For compounds of the present invention to be effective in treating neurotoxicity or neurodegeneration, it must have an ability to cross the BBB and penetrate the brain. […] The plasma exposure as measured by AUClast was 9569±1190 hr*ng/mL.

SMILES: CCc1oc(-c2ccc(OC)cc2)nc1CCOc1ccc2c(c1)CC[C@H]2CC(=O)[O-].[Na+] [Example 11, Sodium (S)-2-(5-(2-(5-ethyl-2-(4-methoxyphenyl)oxazol-4-yl)ethoxy)-2,3-dihydro-1H-inden-1-yl)acetate]
- EC50 (human PPARδ; Lot A, Non GMP, read-out: EC50 PPARδ): 15 nM
- EC50 (human PPARδ; Lot B, GLP Nonclinical Studies, read-out: EC50 PPARδ): 27 nM
- EC50 (human PPARδ; Lot C, cGMP material, read-out: EC50 PPARδ): 16 nM
- EC50 (human PPARδ; average of three lots, read-out: Average EC50 PPARδ): 19 nM
- EC50 (human PPARγ; Lot A, Non GMP, read-out: EC50 PPARγ): 220 nM
- EC50 (human PPARγ; Lot B, GLP Nonclinical Studies, read-out: EC50 PPARγ): 270 nM
- EC50 (human PPARγ; Lot C, cGMP material, read-out: EC50 PPARγ): 400 nM
- EC50 (human PPARγ; average of three lots, read-out: Average EC50 PPARγ): 297 nM
- number of voxels with statistically significant differences from baseline to end of treatment (ROSDs) ([1]; 10 mg): 70 voxels
- penetration of the Blood Brain Barrier (FDG-PET, voxel-wise analysis) ([1]; clinical, 3 to 90 mg): penetrates the Blood Brain Barrier (BBB) even at the lowest 3 mg
- dose dependence of the effect on FDG-PET outcomes ([1]; sROI, anatomical ROI and voxel-wise SPM analyses): dose-dependent, with larger effects observed at larger doses
- P-gp substrate (human Caco-2): not a substrate for P-gp
- Papp [2]: 114 ×10⁻⁶ cm/s
- EC50 (human PPARα; Lot A, Non GMP, read-out: EC50 PPARα): 488 nM
- EC50 (human PPARα; Lot B, GLP Nonclinical Studies, read-out: EC50 PPARα): 750 nM
- EC50 (human PPARα; Lot C, cGMP material, read-out: EC50 PPARα): 360 nM
- selectivity over the human PPAR alpha subtype (human PPARα; PPARδ vs PPARα): ~30 fold
- EC50 (human PPARα; average of three lots, read-out: Average EC50 PPARα): 530 nM
- time plasma Cmax reached post dose ([3]; 3 mg/kg oral): 5 h
- concentration at 7 h ([3]; male, Sprague-Dawley, rat, brain, oral, 3 mg/kg, read-out: Brain Tissue Cone.): 130 ng/g
- Kp at 3 h ([3]; male, Sprague-Dawley, rat, in vivo, 3 mg/kg, time point 3.0, individual rats, read-out: B/P Ratio): 0.19
- concentration at 3 h ([3]; male, Sprague-Dawley, rat, in vivo, 3 mg/kg, time point 3.0, individual rats, read-out: Brain Tissue Cone.): 274 ng/g
- concentration at 3 h ([3]; male, Sprague-Dawley, rat, in vivo, 3 mg/kg, time point 3.0, individual rats, read-out: Plasma Conc.): 1430 ng/mL
- Kp at 5 h ([3]; male, Sprague-Dawley, rat, in vivo, 3 mg/kg, time point 5.0, individual rats, read-out: B/P Ratio): 0.17
- concentration at 5 h ([3]; male, Sprague-Dawley, rat, in vivo, 3 mg/kg, time point 5.0, individual rats, read-out: Brain Tissue Cone.): 208 ng/g
- concentration at 5 h ([3]; male, Sprague-Dawley, rat, in vivo, 3 mg/kg, time point 5.0, individual rats, read-out: Plasma Conc.): 1260 ng/mL
- concentration at 7 h ([3]; male, Sprague-Dawley, rat, in vivo, 3 mg/kg, read-out: Brain Tissue Cone.): 203 ng/g
- Kp at 12 h ([3]; male, Sprague-Dawley, rat, in vivo, 3 mg/kg, time point 12.0, individual rats, read-out: B/P Ratio): 0.3
- concentration at 12 h ([3]; male, Sprague-Dawley, rat, in vivo, 3 mg/kg, time point 12.0, individual rats, read-out: Brain Tissue Cone.): 104 ng/g
- concentration at 12 h ([3]; male, Sprague-Dawley, rat, in vivo, 3 mg/kg, time point 12.0, individual rats, read-out: Plasma Conc.): 345 ng/mL
- Kp at 1 h ([3]; male, Sprague-Dawley, rat, in vivo, po, 3 mg/kg, 1 hour, 3 mg/kg oral): 0.361 ± 0.142
- Kp at 3 h ([3]; male, Sprague-Dawley, rat, in vivo, po, 3 mg/kg, 3 hours, 3 mg/kg oral, read-out: Brain/Plasma ratio): 0.22 ± 0.033
- Kp at 5 h ([3]; male, Sprague-Dawley, rat, in vivo, po, 3 mg/kg, 5 hours, 3 mg/kg oral, read-out: Brain/Plasma ratio): 0.171 ± 0.011
- Kp at 7 h ([3]; male, Sprague-Dawley, rat, in vivo, po, 3 mg/kg, 7 hours, 3 mg/kg oral): 0.328 ± 0.154
- Kp at 12 h ([3]; male, Sprague-Dawley, rat, in vivo, po, 3 mg/kg, 12 hours, 3 mg/kg oral, read-out: Brain/Plasma ratio): 0.35 ± 0.077
- half-life ([3]; male, Sprague-Dawley, rat, in vivo, 3 mg/kg oral): 3.33 h
- Cmax ([3]; male, Sprague-Dawley, rat, in vivo, 3 mg/kg oral, normal saline): 1550 ± 248 ng/mL
- AUC(0-t) ([3]; male, Sprague-Dawley, rat, in vivo, 3 mg/kg oral, read-out: plasma exposure AUClast): 9570 ± 1190 ng·h/mL
- concentration at 3 h ([3]; male, Sprague-Dawley, rat, plasma, oral, 3 mg/kg, time point 3.0, individual rats, read-out: Plasma Conc.): 910 ng/mL
